In ChEMBL document CHEMBL4190187, “Discovery of pyrazolopyrimidine derivatives as novel inhibitors of ataxia telangiectasia and rad3 related protein (ATR)” (Bioorg Med Chem Lett, 2017):

Columns and labels:
[1] = target: Proto-oncogene tyrosine-protein kinase Src (Homo sapiens) (UniProt P12931); assay: Inhibition of recombinant human Src (1 to 530 residues) at 1 uM using GGEEEEYFELVKKKK as substrate after 40 mins in presence of [gamma-33P]ATP by scintillation counting method
[2] = target: STE20-like serine/threonine-protein kinase (Homo sapiens) (UniProt Q9H2G2); assay: Inhibition of recombinant human SLK (1 to 373 residues) at 1 uM using RLGRDKYKTLRQIRQ as substrate after 40 mins in presence of [gamma-33P]ATP by scintillation counting method
[3] = target: Dual specificity tyrosine-phosphorylation-regulated kinase 2 (Homo sapiens) (UniProt Q92630); assay: Inhibition of recombinant full-length human DYRK2 at 1 uM using casein as substrate after 40 mins in presence of [gamma-33P]ATP by scintillation counting method
[4] = target: Activin receptor type-1 (Homo sapiens) (UniProt Q04771); assay: Inhibition of recombinant human ALK2 (147 to end residues) at 1 uM using casein as substrate after 40 mins in presence of [gamma-33P]ATP by scintillation counting method
[5] = target: FKBP12A/mTOR (Homo sapiens) (UniProt P62942+P42345); assay: Inhibition of recombinant full-length human mTOR/FKBP12 at 1 uM after 40 mins in presence of [gamma-33P]ATP by scintillation counting method; type: protein-complex assay
Sequence of FKBP12A/mTOR (Homo sapiens) (P62942 2-108 limits assumed, other chains not shown): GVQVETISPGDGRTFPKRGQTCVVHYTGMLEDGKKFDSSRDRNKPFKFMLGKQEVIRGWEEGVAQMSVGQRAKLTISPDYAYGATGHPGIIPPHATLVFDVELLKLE

[6] = target: Fibroblast growth factor receptor 2 (Homo sapiens) (UniProt P21802); assay: Inhibition of recombinant human FGFR2 (456 to 770 residues) at 1 uM using poly(Glu,Tyr) 4:1 as substrate after 40 mins in presence of [gamma-33P]ATP by scintillation counting method
Sequence of Fibroblast growth factor receptor 2 (Homo sapiens) (P21802 22-821 limits assumed): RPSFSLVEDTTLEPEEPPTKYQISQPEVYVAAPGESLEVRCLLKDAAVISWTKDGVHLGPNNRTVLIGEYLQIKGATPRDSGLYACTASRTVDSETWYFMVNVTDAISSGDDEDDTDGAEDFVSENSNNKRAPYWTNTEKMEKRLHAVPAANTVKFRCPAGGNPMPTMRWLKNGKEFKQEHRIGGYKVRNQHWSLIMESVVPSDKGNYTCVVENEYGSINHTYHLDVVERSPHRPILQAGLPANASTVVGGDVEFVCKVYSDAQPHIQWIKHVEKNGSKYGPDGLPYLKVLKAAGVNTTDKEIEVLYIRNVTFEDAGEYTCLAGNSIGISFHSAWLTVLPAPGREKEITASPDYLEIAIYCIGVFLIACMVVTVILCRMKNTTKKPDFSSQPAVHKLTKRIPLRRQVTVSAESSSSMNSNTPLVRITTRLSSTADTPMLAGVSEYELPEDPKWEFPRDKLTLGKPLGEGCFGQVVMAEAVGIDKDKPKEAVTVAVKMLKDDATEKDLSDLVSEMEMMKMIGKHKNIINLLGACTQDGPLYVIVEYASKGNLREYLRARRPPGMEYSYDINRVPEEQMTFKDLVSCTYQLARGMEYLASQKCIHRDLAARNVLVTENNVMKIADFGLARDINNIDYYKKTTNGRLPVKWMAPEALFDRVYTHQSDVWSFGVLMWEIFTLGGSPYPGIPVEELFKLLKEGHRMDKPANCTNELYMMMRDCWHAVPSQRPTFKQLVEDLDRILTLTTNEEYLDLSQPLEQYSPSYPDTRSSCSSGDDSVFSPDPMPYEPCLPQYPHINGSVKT

[7] = target: Testis-specific serine/threonine-protein kinase 4 (Homo sapiens) (UniProt Q6SA08); assay: Inhibition of recombinant full-length human TSSK4 at 1 uM using KKLNRTLSFAEPG as substrate after 40 mins in presence of [gamma-33P]ATP by scintillation counting method
Sequence of Testis-specific serine/threonine-protein kinase 4 (Homo sapiens) (Q6SA08 whole entry, the tested form may be a part): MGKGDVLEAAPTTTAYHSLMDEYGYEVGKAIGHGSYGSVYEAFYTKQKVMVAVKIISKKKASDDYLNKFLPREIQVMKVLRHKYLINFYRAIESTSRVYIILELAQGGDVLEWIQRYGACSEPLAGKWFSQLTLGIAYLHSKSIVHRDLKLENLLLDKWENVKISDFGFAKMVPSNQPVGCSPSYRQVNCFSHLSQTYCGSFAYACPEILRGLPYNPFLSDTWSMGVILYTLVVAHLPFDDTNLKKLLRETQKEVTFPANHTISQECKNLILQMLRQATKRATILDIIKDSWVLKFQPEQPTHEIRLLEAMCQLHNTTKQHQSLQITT

[8] = target: Serine/threonine-protein kinase SIK3 (Homo sapiens) (UniProt Q9Y2K2); assay: Inhibition of recombinant human SIK3 (1 to 307 residues) at 1 uM using KKKVSRSGLYRSPSMPENLNRPR as substrate after 40 mins in presence of [gamma-33P]ATP by scintillation counting method
[9] = target: Homeodomain-interacting protein kinase 2 (Homo sapiens) (UniProt Q9H2X6); assay: Inhibition of recombinant human HIPK2 (165 to 564 residues) at 1 uM using myelin basic protein as substrate after 40 mins in presence of [gamma-33P]ATP by scintillation counting method
[10] = test system: RAC-gamma serine/threonine-protein kinase (Homo sapiens), Q9Y243 [S472D]; assay: Inhibition of recombinant human PKBgamma S472D mutant (117 to end residues) at 1 uM using GRPRTSSFAEGKK as substrate after 40 mins in presence of [gamma-33P]ATP by scintillation counting method
Sequence of RAC-gamma serine/threonine-protein kinase (Homo sapiens), Q9Y243 [S472D] (Q9Y243 whole entry S472D): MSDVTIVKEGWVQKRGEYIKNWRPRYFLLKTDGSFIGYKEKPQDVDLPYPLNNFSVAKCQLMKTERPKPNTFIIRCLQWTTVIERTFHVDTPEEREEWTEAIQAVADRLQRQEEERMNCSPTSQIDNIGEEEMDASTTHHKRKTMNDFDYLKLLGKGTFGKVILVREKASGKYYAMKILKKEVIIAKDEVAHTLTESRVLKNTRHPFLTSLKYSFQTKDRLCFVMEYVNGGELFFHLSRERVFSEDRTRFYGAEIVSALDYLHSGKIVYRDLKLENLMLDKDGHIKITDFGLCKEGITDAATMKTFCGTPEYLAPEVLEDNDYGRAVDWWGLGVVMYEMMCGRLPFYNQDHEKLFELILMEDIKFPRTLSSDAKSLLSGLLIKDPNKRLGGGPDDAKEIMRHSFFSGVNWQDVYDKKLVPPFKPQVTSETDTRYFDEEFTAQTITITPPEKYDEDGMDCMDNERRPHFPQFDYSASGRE

[11] = target: High affinity nerve growth factor receptor (Homo sapiens) (UniProt P04629); assay: Inhibition of recombinant human TrkA (440 to end residues) at 1 uM using KKKSPGEYVNIEFG as substrate after 40 mins in presence of [gamma-33P]ATP by scintillation counting method
[12] = target: Tyrosine-protein kinase Tec (Homo sapiens) (UniProt P42680); assay: Inhibition of recombinant activated human Tec (174 to end residues) at 1 uM using EFPIYDFLPAKKK as substrate after 40 mins in presence of [gamma-33P]ATP by scintillation counting method
[13] = target: Serine/threonine-protein kinase B-raf (Homo sapiens) (UniProt P15056); assay: Inhibition of recombinant human B-raf (416 to end residues) at 1 uM using myelin basic protein as substrate after 40 mins in presence of [gamma-33P]ATP by scintillation counting method
[14] = target: Ephrin type-A receptor 2 (Homo sapiens) (UniProt P29317); assay: Inhibition of recombinant human EPHA2 (596 to 900 residues) at 1 uM using poly(Glu,Tyr) 4:1 as substrate after 40 mins in presence of [gamma-33P]ATP by scintillation counting method
[15] = target: Serine/threonine-protein kinase MAK (Homo sapiens) (UniProt P20794); assay: Inhibition of recombinant full-length human MAK at 1 uM using RRRFRPASPLRGPPK as substrate after 120 mins in presence of [gamma-33P]ATP by scintillation counting method
Sequence of Serine/threonine-protein kinase MAK (Homo sapiens) (P20794 whole entry, the tested form may be a part): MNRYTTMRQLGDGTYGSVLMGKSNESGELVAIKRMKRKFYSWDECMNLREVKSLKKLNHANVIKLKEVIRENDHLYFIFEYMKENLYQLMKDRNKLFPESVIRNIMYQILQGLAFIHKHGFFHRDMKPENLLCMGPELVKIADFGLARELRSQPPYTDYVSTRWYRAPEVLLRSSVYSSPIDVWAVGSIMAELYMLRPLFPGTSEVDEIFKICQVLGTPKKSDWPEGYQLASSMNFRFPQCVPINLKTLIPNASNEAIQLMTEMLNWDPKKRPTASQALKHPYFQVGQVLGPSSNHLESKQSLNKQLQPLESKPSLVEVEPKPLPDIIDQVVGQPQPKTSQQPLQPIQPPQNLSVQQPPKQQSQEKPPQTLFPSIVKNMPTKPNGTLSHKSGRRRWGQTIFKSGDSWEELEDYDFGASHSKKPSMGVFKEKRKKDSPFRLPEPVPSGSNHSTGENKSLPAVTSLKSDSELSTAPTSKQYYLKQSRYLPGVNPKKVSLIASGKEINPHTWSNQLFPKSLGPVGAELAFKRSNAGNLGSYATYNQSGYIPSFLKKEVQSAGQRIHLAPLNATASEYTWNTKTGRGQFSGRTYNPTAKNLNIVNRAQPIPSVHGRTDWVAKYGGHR

[16] = target: Receptor tyrosine-protein kinase erbB-4 (Homo sapiens) (UniProt Q15303); assay: Inhibition of recombinant human ErbB4 (706 to 991 residues) at 1 uM using poly(Glu,Tyr) 4:1 as substrate after 40 mins in presence of [gamma-33P]ATP by scintillation counting method
[17] = target: Ephrin type-B receptor 3 (Homo sapiens) (UniProt P54753); assay: Inhibition of recombinant human EPHB3 (599 to 920 residues) at 1 uM using poly(Glu,Tyr) 4:1 as substrate after 40 mins in presence of [gamma-33P]ATP by scintillation counting method
Sequence of Ephrin type-B receptor 3 (Homo sapiens) (P54753 whole entry, the tested form may be a part): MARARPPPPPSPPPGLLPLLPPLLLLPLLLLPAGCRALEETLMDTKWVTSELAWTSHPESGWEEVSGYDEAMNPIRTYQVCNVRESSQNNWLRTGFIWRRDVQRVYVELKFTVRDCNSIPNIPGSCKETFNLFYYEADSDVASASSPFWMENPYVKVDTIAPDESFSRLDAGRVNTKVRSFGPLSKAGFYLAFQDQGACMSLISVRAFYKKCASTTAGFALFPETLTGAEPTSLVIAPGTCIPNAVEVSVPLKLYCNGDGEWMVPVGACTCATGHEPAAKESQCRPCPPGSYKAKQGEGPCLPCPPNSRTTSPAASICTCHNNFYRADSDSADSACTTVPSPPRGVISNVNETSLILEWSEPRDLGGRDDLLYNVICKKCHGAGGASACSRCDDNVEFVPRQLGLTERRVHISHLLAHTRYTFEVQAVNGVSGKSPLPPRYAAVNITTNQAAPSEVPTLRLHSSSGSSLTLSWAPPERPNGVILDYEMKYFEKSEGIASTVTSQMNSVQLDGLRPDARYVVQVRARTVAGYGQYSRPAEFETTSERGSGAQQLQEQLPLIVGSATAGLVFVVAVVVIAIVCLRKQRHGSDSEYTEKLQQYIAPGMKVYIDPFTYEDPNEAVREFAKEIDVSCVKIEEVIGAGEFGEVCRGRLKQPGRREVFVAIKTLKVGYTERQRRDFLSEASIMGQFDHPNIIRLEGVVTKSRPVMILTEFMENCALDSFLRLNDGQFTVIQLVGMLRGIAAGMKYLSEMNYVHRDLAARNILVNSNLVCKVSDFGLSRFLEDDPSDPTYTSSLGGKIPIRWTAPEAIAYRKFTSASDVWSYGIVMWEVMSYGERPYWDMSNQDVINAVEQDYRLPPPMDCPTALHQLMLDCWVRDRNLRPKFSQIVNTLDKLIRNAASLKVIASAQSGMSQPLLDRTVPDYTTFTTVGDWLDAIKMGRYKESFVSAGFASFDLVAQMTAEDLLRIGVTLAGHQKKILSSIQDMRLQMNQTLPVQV

[18] = target: Proto-oncogene tyrosine-protein kinase receptor Ret (Homo sapiens) (UniProt P07949); assay: Inhibition of recombinant human RET (658 to end residues) at 1 uM using KKKSPGEYVNIEFG as substrate after 40 mins in presence of [gamma-33P]ATP by scintillation counting method
Sequence of Proto-oncogene tyrosine-protein kinase receptor Ret (Homo sapiens) (P07949 whole entry, the tested form may be a part): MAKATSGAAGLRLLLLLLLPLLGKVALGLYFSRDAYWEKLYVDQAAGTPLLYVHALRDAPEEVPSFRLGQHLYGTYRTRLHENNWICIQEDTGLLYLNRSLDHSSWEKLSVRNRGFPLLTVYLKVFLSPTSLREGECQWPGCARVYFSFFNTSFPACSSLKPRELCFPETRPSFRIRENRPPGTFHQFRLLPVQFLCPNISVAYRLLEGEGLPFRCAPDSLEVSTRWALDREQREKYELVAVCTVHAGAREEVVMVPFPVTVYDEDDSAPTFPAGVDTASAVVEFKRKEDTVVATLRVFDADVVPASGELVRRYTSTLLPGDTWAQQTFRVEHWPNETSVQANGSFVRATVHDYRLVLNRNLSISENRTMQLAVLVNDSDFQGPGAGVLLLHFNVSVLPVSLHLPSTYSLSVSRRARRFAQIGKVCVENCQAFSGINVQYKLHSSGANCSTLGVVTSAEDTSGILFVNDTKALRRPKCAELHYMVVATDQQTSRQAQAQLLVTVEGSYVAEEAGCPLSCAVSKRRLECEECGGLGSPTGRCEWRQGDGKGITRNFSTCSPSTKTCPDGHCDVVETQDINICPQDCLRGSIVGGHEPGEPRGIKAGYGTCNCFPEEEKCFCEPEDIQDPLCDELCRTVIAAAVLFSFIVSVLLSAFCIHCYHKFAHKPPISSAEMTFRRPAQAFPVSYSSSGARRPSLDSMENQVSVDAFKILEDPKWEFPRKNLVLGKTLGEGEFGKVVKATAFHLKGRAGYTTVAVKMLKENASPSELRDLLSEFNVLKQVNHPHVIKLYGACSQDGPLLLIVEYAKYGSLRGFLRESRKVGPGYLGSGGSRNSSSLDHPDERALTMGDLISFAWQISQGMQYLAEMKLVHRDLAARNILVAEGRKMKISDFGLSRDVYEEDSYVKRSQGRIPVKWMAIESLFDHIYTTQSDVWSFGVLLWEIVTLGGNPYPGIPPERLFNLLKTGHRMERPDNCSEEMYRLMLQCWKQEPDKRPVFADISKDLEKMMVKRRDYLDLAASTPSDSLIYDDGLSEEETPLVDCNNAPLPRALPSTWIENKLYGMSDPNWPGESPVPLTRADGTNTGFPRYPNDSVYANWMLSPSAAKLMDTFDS

[19] = target: Serine/threonine-protein kinase WNK2 (Homo sapiens) (UniProt Q9Y3S1); assay: Inhibition of recombinant human WNK2 (166 to 489 residues) at 1 uM using myelin basic protein as substrate after 40 mins in presence of [gamma-33P]ATP by scintillation counting method
[20] = Metabolic stability in human liver microsomes assessed as compound remaining at 1 uM in presence of NADPH as cofactor measured after 30 mins by LC-MS/MS method; type: ADME, microsome; settings: read-out: Stability
[21] = test system: Tyrosine-protein kinase ABL1 (Homo sapiens), P00519 [T315I]; assay: Inhibition of recombinant human Abl T315I mutant (27 to end residues) at 1 uM using EAIYAAPFAKKK as substrate after 40 mins in presence of [gamma-33P]ATP by scintillation counting method
[22] = target: Serine/threonine-protein kinase DCLK2 (Homo sapiens) (UniProt Q8N568); assay: Inhibition of recombinant human DCAMKL2 (376 to end residues) at 1 uM using KKLNRTLSFAEPG as substrate after 40 mins in presence of [gamma-33P]ATP by scintillation counting method
[23] = target: Casein kinase I isoform gamma-1 (Homo sapiens) (UniProt Q9HCP0); assay: Inhibition of recombinant human CK1gamma1 (25 to 355 residues) at 1 uM using KRRRALS(p)VASLPGL as substrate after 40 mins in presence of [gamma-33P]ATP by scintillation counting method
[24] = target: Serine/threonine-protein kinase/endoribonuclease IRE1 (Homo sapiens) (UniProt O75460); assay: Inhibition of recombinant human IRE1 (465 to end residues) at 1 uM using myelin basic protein as substrate after 40 mins in presence of [gamma-33P]ATP by scintillation counting method

Sequence of Proto-oncogene tyrosine-protein kinase Src (Homo sapiens) (P12931 2-536 limits assumed): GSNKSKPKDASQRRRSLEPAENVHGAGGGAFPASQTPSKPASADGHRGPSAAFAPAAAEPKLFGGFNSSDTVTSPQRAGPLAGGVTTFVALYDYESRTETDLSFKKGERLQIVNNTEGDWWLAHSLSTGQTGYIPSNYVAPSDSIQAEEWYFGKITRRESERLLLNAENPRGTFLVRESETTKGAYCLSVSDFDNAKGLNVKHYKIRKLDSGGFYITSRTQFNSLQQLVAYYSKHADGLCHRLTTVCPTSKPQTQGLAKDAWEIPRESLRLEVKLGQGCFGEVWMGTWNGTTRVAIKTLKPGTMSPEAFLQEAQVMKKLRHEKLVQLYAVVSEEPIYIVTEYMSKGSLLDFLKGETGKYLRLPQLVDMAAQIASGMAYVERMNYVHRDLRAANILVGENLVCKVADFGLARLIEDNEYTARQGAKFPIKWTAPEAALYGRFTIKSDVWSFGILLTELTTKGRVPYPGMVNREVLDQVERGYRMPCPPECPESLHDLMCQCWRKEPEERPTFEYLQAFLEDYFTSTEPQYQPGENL

CS(=O)(=O)c1ccc(-n2nc(-c3cnc4[nH]ccc4c3)c3c(N)ncnc32)cc1
inhibition [1]: 64% | inhibition [2]: 7% | inhibition [3]: -10% | inhibition [4]: 0% | inhibition [5]: 78% | inhibition [6]: 17% | inhibition [7]: -10% | inhibition [8]: 20% | inhibition [9]: 3% | inhibition [10]: -7% | inhibition [11]: 2% | inhibition [12]: 55% | inhibition [13]: 89% | inhibition [14]: 9% | inhibition [15]: 2% | inhibition [16]: 4% | inhibition [17]: -2% | inhibition [18]: 95% | inhibition [19]: 23% | remaining at 0.5 h, 1 µM [20]: 83% | inhibition [21]: 13% | inhibition [22]: -1% | inhibition [23]: 4% | inhibition [24]: 2%
